Results on 62 compounds are retold here after the Kinase Knowledgebase extract (Sharma et al. 2016).

This assay addresses CDK2 (UniProt P24941). Kind of assay: Enzyme Assay.

Regarding `CC1(C)[C@@H]2[C@@H](CO)N(c3cc(NCc4cccnc4)n4ncc(Br)c4n3)C[C@@H]21`, the IC50 lay in the range of 0.1 to 100 nM.
The compound `OCC[C@@H]1CCCN1c1cc(NCc2cccnc2)n2ncc(Br)c2n1` had an IC50 of 0.1 to 100 nM.
Next, `O=c1cc(CNc2cc(-c3ccccc3)nc3c(Br)cnn23)cc[nH]1`: 0.1 to 100 nM.
For `CNC(=O)c1ccc(CNc2cc(-c3ccccc3F)nc3c(Br)cnn23)cc1` the value was 0.1 to 100 nM; for `CC(C)c1cc(NCc2ccc[n+]([O-])c2)n2ncc(Br)c2n1`, 0.1 to 100 nM.
For `CCc1cnn2c(NCc3ccc[n+]([O-])c3)cc(-c3ccccc3F)nc12` the value was 0.1 to 100 nM.
The compound `OCC1CCCCN1c1cc(NCc2cccnc2)n2ncc(Br)c2n1` (configuration not stated) returned an IC50 of 0.1 to 100 nM.
For `[O-][n+]1cccc(CNc2cc(C3CCNCC3)nc3c(Br)cnn23)c1` the value was 0.1 to 100 nM; for `Brc1cnn2c(NCc3cccnc3)cc(C3CCCCC3)nc12`, 0.1 to 100 nM.
For `Cn1cnc2cc(CNc3cc(-c4ccccc4)nc4c(Br)cnn34)ccc21` the value was 0.1 to 100 nM; for `Brc1cnn2c(NCc3ccc4[nH]cnc4c3)cc(C3CCCCC3)nc12`, 0.1 to 100 nM; for `Brc1cnn2c(NCc3cccnc3)cc(C3CCOCC3)nc12`, 0.1 to 100 nM.
Next, `CS(=O)(=O)N1CCC(c2cc(NCc3cccnc3)n3ncc(Br)c3n2)CC1`: 0.1 to 100 nM; `[O-][n+]1cccc(CNc2cc(-c3ccccc3F)nc3c(Br)cnn23)c1`: 0.1 to 100 nM; `[O-][n+]1cccc(CNc2cc(-c3ccc(Cl)cc3)nc3c(Br)cnn23)c1`: 0.1 to 100 nM.
Regarding `CCOc1ccc(CNc2cc(-c3ccccc3)nc3c(Br)cnn23)c[n+]1[O-]`, the IC50 was 0.1 to 100 nM.
For `CCc1cnn2c(NCc3ccnc(O)c3)cc(-c3ccccc3)nc12` the value was 0.1 to 100 nM; for `[O-][n+]1cccc(CNc2cc(-c3ccccc3)nc3c(Br)cnn23)c1`, 0.1 to 100 nM.
Next, `CCc1cnn2c(NCc3ccc(OC)[n+]([O-])c3)cc(-c3ccccc3F)nc12`: 0.1 to 100 nM; `OC[C@H]1CCCC[C@H]1Nc1cc(NCc2cccnc2)n2ncc(Br)c2n1`: 0.1 to 100 nM.
For `CC(C)(O)[C@@H]1CCCN1c1cc(NCc2ccc[n+]([O-])c2)n2ncc(Br)c2n1` the value was 0.1 to 100 nM; for `CC(C)[C@@H](CO)Nc1cc(NCc2ccc[n+]([O-])c2)n2ncc(Br)c2n1`, 0.1 to 100 nM; for `CC(C)[C@H](CO)Nc1cc(NCc2ccc[n+]([O-])c2)n2ncc(Br)c2n1`, 0.1 to 100 nM.
With `[O-][n+]1cccc(CNc2cc(-c3cccs3)nc3c(Br)cnn23)c1`, the IC50 lay within 0.1 to 100 nM.
Next, `O=c1ccc(CNc2cc(-c3ccccc3)nc3c(Br)cnn23)c[nH]1`: 0.1 to 100 nM; `CCc1cnn2c(NCc3ccc[n+]([O-])c3)cc(C3CCCCC3)nc12`: 0.1 to 100 nM; `Brc1cnn2c(NCc3ccc4[nH]cnc4c3)cc(C3CCNCC3)nc12`: 0.1 to 100 nM.
For `[O-][n+]1cccc(CNc2cc(C3CCCCC3)nc3c(Br)cnn23)c1` the value was 0.1 to 100 nM; for `[O-][n+]1cc(CNc2cc(-c3ccccc3)nc3c(Br)cnn23)ccc1OCC(F)(F)F`, 0.1 to 100 nM; for `COc1ccc(CNc2cc(-c3ccccc3F)nc3c(Br)cnn23)c[n+]1[O-]`, 0.1 to 100 nM.
Next, `O=c1ccc(CNc2cc(C3CCCCC3)nc3c(Br)cnn23)c[nH]1`: 0.1 to 100 nM; `[O-][n+]1cccc(CNc2cc(-c3ccccc3Cl)nc3c(Br)cnn23)c1`: 0.1 to 100 nM; `CC(=O)N1CCCC(c2cc(NCc3cccnc3)n3ncc(Br)c3n2)C1` (configuration not stated): 0.1 to 100 nM.
Consider `CC(=O)N1CCC(c2cc(NCc3cccnc3)n3ncc(Br)c3n2)CC1`, for which the IC50 is 0.1 to 100 nM.
The compound `OC[C@H]1CCCC[C@H]1c1cc(NCc2cccnc2)n2ncc(Br)c2n1` displayed an IC50 of 0.1 to 100 nM.
For `CC(C)(O)[C@@H]1CCCN1c1cc(NCc2cccnc2)n2ncc(Br)c2n1`, the IC50 is 0.1 to 100 nM.
Next, `CC(C)(CO)Nc1cc(NCc2cccnc2)n2ncc(Br)c2n1`: 0.1 to 100 nM; `OCCC1CCCCN1c1cc(NCc2cccnc2)n2ncc(Br)c2n1` (configuration not stated): 0.1 to 100 nM.
For `Cc1ccccc1-c1cc(NCc2ccc[n+]([O-])c2)n2ncc(Br)c2n1` the value was 0.1 to 100 nM; for `CC(C)Oc1ccc(CNc2cc(-c3ccccc3F)nc3c(Br)cnn23)c[n+]1[O-]`, 0.1 to 100 nM; for `Brc1cnn2c(NCc3ccc(-c4csnn4)cc3)cc(C3CCNCC3)nc12`, 0.1 to 100 nM.
Next, `COc1c(Cl)cc(CNc2cc(-c3ccccc3)nc3c(Br)cnn23)c[n+]1[O-]`: 0.1 to 100 nM; `Brc1cnn2c(NCc3cccnc3)cc(-c3ccccc3)nc12`: 0.1 to 100 nM.
In turn, `CC(C)(O)[C@H]1CCCC[C@H]1c1cc(NCc2cccnc2)n2ncc(Br)c2n1` came in with an IC50 of 0.1 to 100 nM.
In turn, `NC(=O)N1CCCC(c2cc(NCc3cccnc3)n3ncc(Br)c3n2)C1` (configuration not stated) showed an IC50 of 0.1 to 100 nM.
For `Oc1cc(CNc2cc(C3CCCCC3)nc3c(Br)cnn23)ccn1` the value was 0.1 to 100 nM; for `Fc1ccccc1-c1cc(NCc2ccc3[nH]cnc3c2)n2ncc(Br)c2n1`, 0.1 to 100 nM; for `Brc1cnn2c(NCc3cccnc3)cc(-c3ccco3)nc12`, 0.1 to 100 nM.
For `CCc1cnn2c(NCc3cccnc3)cc(-c3ccccc3)nc12` the value was 0.1 to 100 nM; for `NC(=O)N1CCC(c2cc(NCc3cccnc3)n3ncc(Br)c3n2)CC1`, 0.1 to 100 nM.
For `[O-][n+]1cccc(CNc2cc(C3CCOCC3)nc3c(Br)cnn23)c1` the value was 0.1 to 100 nM; for `CS(=O)(=O)N1CCCC(c2cc(NCc3cccnc3)n3ncc(Br)c3n2)C1` (configuration not stated), 0.1 to 100 nM; for `O=c1ccc(CNc2cc(-c3ccccc3F)nc3c(Br)cnn23)c[nH]1`, 0.1 to 100 nM.
In turn, `CCc1cnn2c(NCc3ccc[n+]([O-])c3)cc(-c3ccccc3)nc12` showed an IC50 of 0.1 to 100 nM.
For `[O-][n+]1cccc(CNc2cc(N3CCC[C@H]3CO)nc3c(Br)cnn23)c1` the value was 0.1 to 100 nM; for `Brc1cnn2c(NCc3cccnc3)cc(C3CCCNC3)nc12` (configuration not stated), 0.1 to 100 nM.
Consider `N[C@H]1CC[C@H](Nc2cc(NCc3cccnc3)n3ncc(Br)c3n2)CC1`, for which the IC50 is 0.1 to 100 nM.
Next, `Brc1cnn2c(NCc3cccnc3)cc(C3CCNCC3)nc12`: 0.1 to 100 nM.
For `OCC1(Nc2cc(NCc3cccnc3)n3ncc(Br)c3n2)CCCC1` the value was 0.1 to 100 nM.
For `Nc1ncc(CNc2cc(C3CCCNC3)nc3c(Br)cnn23)cn1` (configuration not stated) the value was 0.1 to 100 nM; for `[O-][n+]1cccc(CNc2cc(-c3ccco3)nc3c(Br)cnn23)c1`, 0.1 to 100 nM; for `O=C(C1CC1)N1CCC(c2cc(NCc3cccnc3)n3ncc(Br)c3n2)CC1`, 0.1 to 100 nM.
